Source: PubChem BioAssay (NCI)
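How tested: cells in 96-well plates exposed to compound for 48 hours at five concentrations. At the TGI there is no net growth.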

What was measured:
Assay in all cases: NCI tumour cell line growth inhibition, 48 h
786-0 renal = system: 786-0 renal
BT-549 breast = system: BT-549 breast
HS 578T breast = system: HS 578T breast
PC-3 prostate = system: PC-3 prostate
T-47D breast = system: T-47D breast
LXFL 529 NSCLC = system: LXFL 529 NSCLC
RXF-631 renal = system: RXF-631 renal
DMS 114 small cell lung = system: DMS 114 small cell lung
M19-MEL melanoma = system: M19-MEL melanoma
P388 leukemia = system: P388 leukemia
P388/ADR leukemia = system: P388/ADR leukemia
SN12K1 renal = system: SN12K1 renal

SMILES	TGI (HS 578T breast)	TGI (PC-3 prostate)	TGI (T-47D breast)	TGI (RXF-631 renal)	TGI (DMS 114 small cell lung)	TGI (M19-MEL melanoma)	further results
NC(=O)NC1NC(=O)NC1=O (stereo not drawn)	> 100 µM	> 100 µM	> 100 µM				TGI (786-0 renal): > 100 µM; TGI (BT-549 breast): > 100 µM
CCC(C)C(=O)OC1C(=O)OC2CC3C(C)=CC(=O)C(O)C3(C)C3C4(O)OCC23C1C(C)C4O (stereo not drawn)	0.275 µM	0.481 µM	0.158 µM				TGI (BT-549 breast): 0.094 µM
CCOC(=O)/C=C/CC(C)(C)COC(C)=O	> 10 µM	> 10 µM	> 10 µM				
CCC1CN2CCc3cc(OC)c(OC)cc3C2CC1CC1c2cc(OC)c(OC)cc2CCN1C(=O)C(N)Cc1ccccc1 (stereo not drawn)				8.11 µM			TGI (LXFL 529 NSCLC): 11.6 µM
NCC(Cl)C(O)c1cnc(N)[nH]1 (stereo not drawn)					40.7 µM	29.8 µM	TGI (P388 leukemia): 1.06 µM; TGI (P388/ADR leukemia): 10.1 µM; TGI (SN12K1 renal): 12.4 µM
CC(C)=CCc1c(O)cc(O)c2c1OC(c1ccc(O)cc1)C(O)C2=O (stereo not drawn)				97.9 µM	> 100 µM	> 100 µM	TGI (LXFL 529 NSCLC): 86.9 µM
COc1ccc(C2C(C(=O)O)=C(CO)Oc3cc4c(cc32)OCO4)cc1 (stereo not drawn)				> 100 µM	> 100 µM	> 100 µM	
CCOC(=O)C1(CO)CSCCSC1	> 100 µM	> 100 µM					
CCN(CC)C(=O)c1cc(OC(C)C)ccc1-c1c(C)cc(OC(C)C)c(OC)c1OC					> 100 µM		
CC(=O)OC1C=C(C=O)C(O)(C=O)C2(C)CCCC(C)(C)C12 (stereo not drawn)					2.24 µM	3.36 µM	TGI (P388 leukemia): 0.525 µM; TGI (SN12K1 renal): 3.85 µM
